Experiments:
JAK1 = JAK1 (Homo sapiens (Human), UniProt P23458); experiment: Biochemical JAK1 kinase assay (LanthaScreen)
Outline: (§1)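 GST-JAK + GFP-STAT1 peptide, HEPES pH 7.5/MgCl2/EGTA/Brij-35 buffer; cpd preincubation 1 h RT; ATP start, 1 h RT; stop with 10 mM EDTA + 2 nM Tb-anti-pSTAT1; TR-FRET 520/495. 4-parameter IC50 → pKi (Cheng-Prusoff).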

JAK2 = JAK2 (Homo sapiens (Human), UniProt O60674); experiment: Biochemical JAK2 kinase assay (LanthaScreen)
Outline: as §1

JAK3 = JAK3 (Homo sapiens (Human), UniProt P52333); experiment: Biochemical JAK3 kinase assay (LanthaScreen); settings: for JAK3 (pKi)-JAK1 (pKi): selectivity JAK3 over JAK1, difference of pKi
Chain of JAK3 (P52333 whole entry): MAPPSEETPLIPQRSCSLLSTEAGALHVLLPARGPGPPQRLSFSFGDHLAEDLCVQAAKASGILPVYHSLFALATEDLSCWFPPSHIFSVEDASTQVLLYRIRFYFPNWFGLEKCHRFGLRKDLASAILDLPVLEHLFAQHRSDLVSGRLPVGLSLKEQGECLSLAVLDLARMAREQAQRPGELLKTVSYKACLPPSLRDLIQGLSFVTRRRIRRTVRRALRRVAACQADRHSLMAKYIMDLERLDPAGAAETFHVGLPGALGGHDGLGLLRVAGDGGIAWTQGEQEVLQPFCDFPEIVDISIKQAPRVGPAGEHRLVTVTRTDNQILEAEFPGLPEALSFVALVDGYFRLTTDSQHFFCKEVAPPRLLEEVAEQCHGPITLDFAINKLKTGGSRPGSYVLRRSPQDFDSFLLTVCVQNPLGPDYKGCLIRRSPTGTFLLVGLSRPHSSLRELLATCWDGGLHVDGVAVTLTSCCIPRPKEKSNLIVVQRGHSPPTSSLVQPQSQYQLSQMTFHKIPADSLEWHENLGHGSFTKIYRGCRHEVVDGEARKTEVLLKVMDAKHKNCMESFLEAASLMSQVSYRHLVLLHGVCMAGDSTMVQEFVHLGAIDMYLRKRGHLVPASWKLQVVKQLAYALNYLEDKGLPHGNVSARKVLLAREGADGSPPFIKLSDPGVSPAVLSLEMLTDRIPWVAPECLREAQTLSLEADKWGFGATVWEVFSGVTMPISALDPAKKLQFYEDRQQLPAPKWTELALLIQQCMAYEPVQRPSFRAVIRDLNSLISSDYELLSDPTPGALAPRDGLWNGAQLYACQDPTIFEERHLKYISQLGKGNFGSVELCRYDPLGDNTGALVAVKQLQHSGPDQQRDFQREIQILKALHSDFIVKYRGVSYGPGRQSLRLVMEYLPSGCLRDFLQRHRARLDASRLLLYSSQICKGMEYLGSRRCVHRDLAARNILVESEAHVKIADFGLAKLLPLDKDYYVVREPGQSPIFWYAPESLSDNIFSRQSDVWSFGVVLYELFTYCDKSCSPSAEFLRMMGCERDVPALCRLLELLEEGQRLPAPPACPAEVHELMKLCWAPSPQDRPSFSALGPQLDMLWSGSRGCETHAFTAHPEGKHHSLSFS
Outline: as §1

Tyk2 = Tyk2 (Homo sapiens (Human), UniProt P29597); experiment: Biochemical Tyk2 kinase assay (LanthaScreen)
Chain of Tyk2 (P29597 whole entry): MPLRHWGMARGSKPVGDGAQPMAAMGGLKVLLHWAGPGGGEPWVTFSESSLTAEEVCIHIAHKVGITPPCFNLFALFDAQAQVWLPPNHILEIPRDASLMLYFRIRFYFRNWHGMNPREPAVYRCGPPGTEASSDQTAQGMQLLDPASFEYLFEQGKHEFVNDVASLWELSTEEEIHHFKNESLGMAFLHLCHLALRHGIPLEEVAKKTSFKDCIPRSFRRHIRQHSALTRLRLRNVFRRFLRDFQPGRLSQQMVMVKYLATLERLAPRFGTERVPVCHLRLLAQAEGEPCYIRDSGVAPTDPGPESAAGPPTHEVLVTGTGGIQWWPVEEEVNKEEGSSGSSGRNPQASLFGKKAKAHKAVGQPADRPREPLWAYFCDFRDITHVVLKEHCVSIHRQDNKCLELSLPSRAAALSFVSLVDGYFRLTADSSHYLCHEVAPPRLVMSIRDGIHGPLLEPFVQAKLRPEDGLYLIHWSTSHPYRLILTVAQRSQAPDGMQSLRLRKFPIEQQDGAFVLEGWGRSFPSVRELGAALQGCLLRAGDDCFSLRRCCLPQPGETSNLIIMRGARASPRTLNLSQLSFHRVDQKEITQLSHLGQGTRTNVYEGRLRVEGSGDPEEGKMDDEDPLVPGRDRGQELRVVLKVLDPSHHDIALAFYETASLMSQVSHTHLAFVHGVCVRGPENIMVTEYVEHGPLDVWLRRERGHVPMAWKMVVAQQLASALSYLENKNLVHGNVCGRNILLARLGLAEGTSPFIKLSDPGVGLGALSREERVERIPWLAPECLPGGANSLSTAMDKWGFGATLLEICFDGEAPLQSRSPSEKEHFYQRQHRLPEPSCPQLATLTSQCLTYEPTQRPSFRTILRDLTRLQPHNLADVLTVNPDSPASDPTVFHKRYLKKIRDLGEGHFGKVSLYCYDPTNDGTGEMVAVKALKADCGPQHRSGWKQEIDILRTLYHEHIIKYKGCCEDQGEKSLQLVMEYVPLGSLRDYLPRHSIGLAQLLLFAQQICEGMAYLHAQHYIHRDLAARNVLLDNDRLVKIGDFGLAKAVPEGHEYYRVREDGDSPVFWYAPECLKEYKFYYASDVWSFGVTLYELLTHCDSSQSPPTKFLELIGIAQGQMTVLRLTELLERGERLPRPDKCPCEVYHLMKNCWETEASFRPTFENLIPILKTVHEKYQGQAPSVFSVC
Outline: as §1

[1] = system: IL-2 stimulated STAT5 phosphorylation in Tall-1 human T cell line (JAK3); experiment: Cellular JAK3 potency assay: inhibition of IL-2 stimulated pSTAT5 in Tall-1 T cells; assay type: cell-based; settings: IL-2 stimulated pSTAT5, Tall-1 T cells
Outline: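 AlphaLISA SureFire Ultra measures STAT5 Tyr694/699 phosphorylation in lysed Tall-1 human T cells. Cells were exposed to compound for 1 h at 37 °C before a 30 min IL-2 challenge (300 ng/ml final). Values are pIC50 means with standard deviation from signal-versus-concentration curves.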

Caco-2 cell monolayers = experiment: Caco-2 permeation assay; assay type: in vitro ADME; settings: 5 μM, A-B direction, with Verapamil (25 μM)
Outline: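 Passive A-to-B permeability with P-gp inhibited by verapamil (25 μM); compound at 5 μM, n=2. Both compartments sampled at t0 and t120 and quantified by LC-MS/MS, giving apparent permeability in cm/sec from flux, area and concentration.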

Chain of JAK2 (O60674 whole entry): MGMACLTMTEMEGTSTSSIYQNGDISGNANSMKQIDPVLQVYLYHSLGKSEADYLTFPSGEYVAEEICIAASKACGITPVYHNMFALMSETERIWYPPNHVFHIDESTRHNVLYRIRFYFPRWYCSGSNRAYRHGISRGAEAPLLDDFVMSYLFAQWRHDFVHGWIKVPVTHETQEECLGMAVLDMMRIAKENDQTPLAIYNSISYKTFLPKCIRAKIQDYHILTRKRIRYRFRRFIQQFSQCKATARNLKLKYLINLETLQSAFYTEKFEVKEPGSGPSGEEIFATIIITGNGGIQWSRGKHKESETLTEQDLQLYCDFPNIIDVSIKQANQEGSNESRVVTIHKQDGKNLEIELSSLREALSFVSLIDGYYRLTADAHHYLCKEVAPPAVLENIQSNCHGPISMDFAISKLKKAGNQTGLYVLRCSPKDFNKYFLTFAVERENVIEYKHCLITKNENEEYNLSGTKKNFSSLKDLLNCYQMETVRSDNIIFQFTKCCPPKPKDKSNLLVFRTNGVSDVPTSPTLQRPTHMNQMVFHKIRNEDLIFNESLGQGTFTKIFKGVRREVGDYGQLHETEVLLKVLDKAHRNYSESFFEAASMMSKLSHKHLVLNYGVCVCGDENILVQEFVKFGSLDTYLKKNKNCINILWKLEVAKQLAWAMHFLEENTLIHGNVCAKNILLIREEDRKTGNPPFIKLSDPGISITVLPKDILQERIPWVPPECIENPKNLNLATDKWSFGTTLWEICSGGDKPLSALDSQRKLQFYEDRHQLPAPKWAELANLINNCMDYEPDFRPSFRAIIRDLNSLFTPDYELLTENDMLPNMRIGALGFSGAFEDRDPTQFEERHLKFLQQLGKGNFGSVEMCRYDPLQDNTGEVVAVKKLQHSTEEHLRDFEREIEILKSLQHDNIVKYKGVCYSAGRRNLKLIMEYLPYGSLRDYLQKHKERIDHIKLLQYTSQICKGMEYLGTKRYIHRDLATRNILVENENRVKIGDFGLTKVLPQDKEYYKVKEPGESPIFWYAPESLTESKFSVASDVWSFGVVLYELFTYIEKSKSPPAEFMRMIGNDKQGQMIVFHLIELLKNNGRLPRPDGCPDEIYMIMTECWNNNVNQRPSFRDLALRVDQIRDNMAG
Chain of JAK1 (P23458 whole entry): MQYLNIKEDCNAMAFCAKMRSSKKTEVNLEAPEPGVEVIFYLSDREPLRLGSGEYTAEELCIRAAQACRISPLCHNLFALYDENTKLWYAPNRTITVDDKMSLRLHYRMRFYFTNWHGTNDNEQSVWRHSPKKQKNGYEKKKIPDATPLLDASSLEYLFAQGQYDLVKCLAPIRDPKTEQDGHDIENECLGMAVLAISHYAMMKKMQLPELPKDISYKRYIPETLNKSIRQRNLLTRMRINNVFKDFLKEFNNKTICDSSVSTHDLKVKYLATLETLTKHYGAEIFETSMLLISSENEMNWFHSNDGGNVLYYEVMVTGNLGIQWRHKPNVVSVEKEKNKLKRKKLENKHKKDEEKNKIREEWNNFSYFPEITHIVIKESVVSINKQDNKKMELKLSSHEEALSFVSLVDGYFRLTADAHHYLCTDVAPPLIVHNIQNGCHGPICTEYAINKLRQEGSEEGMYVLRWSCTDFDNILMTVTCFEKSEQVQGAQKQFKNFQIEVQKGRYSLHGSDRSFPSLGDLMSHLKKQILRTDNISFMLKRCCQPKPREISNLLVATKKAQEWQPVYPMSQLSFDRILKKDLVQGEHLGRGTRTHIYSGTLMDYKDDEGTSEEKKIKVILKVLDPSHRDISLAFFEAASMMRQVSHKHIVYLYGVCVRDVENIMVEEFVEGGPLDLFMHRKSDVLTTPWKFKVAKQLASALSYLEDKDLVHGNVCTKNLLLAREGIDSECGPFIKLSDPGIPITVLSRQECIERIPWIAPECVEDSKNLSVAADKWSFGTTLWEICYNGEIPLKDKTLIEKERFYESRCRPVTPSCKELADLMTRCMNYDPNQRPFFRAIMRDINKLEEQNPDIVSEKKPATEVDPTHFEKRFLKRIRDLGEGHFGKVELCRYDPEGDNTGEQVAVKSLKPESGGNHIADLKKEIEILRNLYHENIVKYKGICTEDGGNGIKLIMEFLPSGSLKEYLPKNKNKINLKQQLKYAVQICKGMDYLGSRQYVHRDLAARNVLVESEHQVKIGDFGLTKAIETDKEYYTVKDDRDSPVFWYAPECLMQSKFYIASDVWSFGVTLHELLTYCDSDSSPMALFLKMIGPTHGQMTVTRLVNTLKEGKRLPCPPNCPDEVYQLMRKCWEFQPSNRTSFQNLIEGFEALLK

SMILES	JAK 1 (pKi) (JAK1)	JAK 2 (pKi) (JAK2)	JAK 3 (pKi) (JAK3)	JAK3 (pKi)-JAK1 (pKi) (JAK3)	Tyk 2 (pKi) (Tyk2)	Tall-1 (pIC50) [1]	Caco Kp (Caco-2 cell monolayers)
C=CC(=O)N1CC(CCn2c(=O)ccc3cnc(Nc4ccc5[nH]ncc5c4)nc32)C1 [Example 82]	E (E represents a pKi value of 7 or below (Ki of 100 nM or above))	E (E represents a pKi value of 7 or below (Ki of 100 nM or above))	B (B represents pKi value between 9 and 10 (Ki between 1 nM and 0.1 nM))	A (A represents a value of 3 or above)	E (E represents a pKi value of 7 or below (Ki of 100 nM or above))	C (C represents a pIC50 value between 6 and 6.7 (IC50 between 1 μM and 200 nM))	A (A represents a value below 5×10^−6 cm/sec)
C=CC(=O)N1CC(CCn2c(=O)ccc3cnc(Nc4ccc5cn[nH]c5c4)nc32)C1 [Example 83]	E (E represents a pKi value of 7 or below (Ki of 100 nM or above))	E (E represents a pKi value of 7 or below (Ki of 100 nM or above))	B (B represents pKi value between 9 and 10 (Ki between 1 nM and 0.1 nM))	A (A represents a value of 3 or above)	E (E represents a pKi value of 7 or below (Ki of 100 nM or above))	C (C represents a pIC50 value between 6 and 6.7 (IC50 between 1 μM and 200 nM))	A (A represents a value below 5×10^−6 cm/sec)
C=CC(=O)N1CC(CCn2c(=O)ccc3cnc(Nc4cccc(CN5CCSCC5)c4)nc32)C1 [Example 85]	E (E represents a pKi value of 7 or below (Ki of 100 nM or above))	E (E represents a pKi value of 7 or below (Ki of 100 nM or above))	A (A represents a pKi value≥10 (Ki≤0.1 nM))	A (A represents a value of 3 or above)	E (E represents a pKi value of 7 or below (Ki of 100 nM or above))	B (B represents a pC50 value between 6.7 (included) and 7.5 (IC50 between 200 nM and 32 nM))	C (C represents a value between 10×10^−6 and 30×10^−6 cm/sec)
C=CC(=O)N1CC(CCn2c(=O)ccc3cnc(Nc4ccc(CN5CCSCC5)cc4)nc32)C1 [Example 86]	E (E represents a pKi value of 7 or below (Ki of 100 nM or above))	E (E represents a pKi value of 7 or below (Ki of 100 nM or above))	B (B represents pKi value between 9 and 10 (Ki between 1 nM and 0.1 nM))	A (A represents a value of 3 or above)	E (E represents a pKi value of 7 or below (Ki of 100 nM or above))	B (B represents a pC50 value between 6.7 (included) and 7.5 (IC50 between 200 nM and 32 nM))	C (C represents a value between 10×10^−6 and 30×10^−6 cm/sec)
C=CC(=O)N1CC(CCn2c(=O)ccc3cnc(Nc4cccc(CN(C)C)c4)nc32)C1 [Example 90]	E (E represents a pKi value of 7 or below (Ki of 100 nM or above))	E (E represents a pKi value of 7 or below (Ki of 100 nM or above))	B (B represents pKi value between 9 and 10 (Ki between 1 nM and 0.1 nM))	A (A represents a value of 3 or above)	E (E represents a pKi value of 7 or below (Ki of 100 nM or above))	B (B represents a pC50 value between 6.7 (included) and 7.5 (IC50 between 200 nM and 32 nM))	A (A represents a value below 5×10^−6 cm/sec)
C=CC(=O)N1CC(CCn2c(=O)ccc3cnc(Nc4ccc(N(C)C)cc4)nc32)C1 [Example 91]	E (E represents a pKi value of 7 or below (Ki of 100 nM or above))	E (E represents a pKi value of 7 or below (Ki of 100 nM or above))	A (A represents a pKi value≥10 (Ki≤0.1 nM))	A (A represents a value of 3 or above)	E (E represents a pKi value of 7 or below (Ki of 100 nM or above))	B (B represents a pC50 value between 6.7 (included) and 7.5 (IC50 between 200 nM and 32 nM))	D (D represents a value over 30×10^−6 cm/sec)
C=CC(=O)N1CC(CCn2c(=O)ccc3cnc(Nc4ccc(N5CCN(S(C)(=O)=O)CC5)cc4)nc32)C1 [Example 94]	E (E represents a pKi value of 7 or below (Ki of 100 nM or above))	E (E represents a pKi value of 7 or below (Ki of 100 nM or above))	A (A represents a pKi value≥10 (Ki≤0.1 nM))	A (A represents a value of 3 or above)	E (E represents a pKi value of 7 or below (Ki of 100 nM or above))	A (A represents a pIC50 value≥7.5 (IC50≤32 nM))	A (A represents a value below 5×10^−6 cm/sec)
C=CC(=O)N1CC(CCn2c(=O)ccc3cnc(Nc4ccc(N5CCN(C(=S)N(C)C)CC5)cc4)nc32)C1 [Example 95]	E (E represents a pKi value of 7 or below (Ki of 100 nM or above))	E (E represents a pKi value of 7 or below (Ki of 100 nM or above))	A (A represents a pKi value≥10 (Ki≤0.1 nM))	A (A represents a value of 3 or above)	E (E represents a pKi value of 7 or below (Ki of 100 nM or above))	A (A represents a pIC50 value≥7.5 (IC50≤32 nM))	A (A represents a value below 5×10^−6 cm/sec)
C=CC(=O)N1CC(CCn2c(=O)ccc3cnc(Nc4ccc(N5CCN(S(=O)(=O)NC)CC5)cc4)nc32)C1 [Example 96]	E (E represents a pKi value of 7 or below (Ki of 100 nM or above))	E (E represents a pKi value of 7 or below (Ki of 100 nM or above))	A (A represents a pKi value≥10 (Ki≤0.1 nM))	A (A represents a value of 3 or above)	E (E represents a pKi value of 7 or below (Ki of 100 nM or above))	B (B represents a pC50 value between 6.7 (included) and 7.5 (IC50 between 200 nM and 32 nM))	A (A represents a value below 5×10^−6 cm/sec)
C=CC(=O)N1CC(CCn2c(=O)ccc3cnc(Nc4ccc(N5CCN(C(=O)SC(C)(C)C)CC5)cc4)nc32)C1 [Example 98]	E (E represents a pKi value of 7 or below (Ki of 100 nM or above))	E (E represents a pKi value of 7 or below (Ki of 100 nM or above))	A (A represents a pKi value≥10 (Ki≤0.1 nM))	A (A represents a value of 3 or above)	E (E represents a pKi value of 7 or below (Ki of 100 nM or above))	B (B represents a pC50 value between 6.7 (included) and 7.5 (IC50 between 200 nM and 32 nM))	A (A represents a value below 5×10^−6 cm/sec)
C=CC(=O)N1CC(CCn2c(=O)ccc3cnc(Nc4ccc(N5CCN(C(=O)OCCOC)CC5)cc4)nc32)C1 [Example 99]	E (E represents a pKi value of 7 or below (Ki of 100 nM or above))	E (E represents a pKi value of 7 or below (Ki of 100 nM or above))	A (A represents a pKi value≥10 (Ki≤0.1 nM))	A (A represents a value of 3 or above)	E (E represents a pKi value of 7 or below (Ki of 100 nM or above))	B (B represents a pC50 value between 6.7 (included) and 7.5 (IC50 between 200 nM and 32 nM))	A (A represents a value below 5×10^−6 cm/sec)
C=CC(=O)N1CC(CCn2c(=O)ccc3cnc(Nc4ccc(N5CCN(C(=O)OC(C)C)CC5)cc4)nc32)C1 [Example 100]	E (E represents a pKi value of 7 or below (Ki of 100 nM or above))	E (E represents a pKi value of 7 or below (Ki of 100 nM or above))	A (A represents a pKi value≥10 (Ki≤0.1 nM))	A (A represents a value of 3 or above)	E (E represents a pKi value of 7 or below (Ki of 100 nM or above))	A (A represents a pIC50 value≥7.5 (IC50≤32 nM))	A (A represents a value below 5×10^−6 cm/sec)
